According to patent publication US10071108B2, “Methods and pharmaceutical compositions for the treatment of hepatitis b virus infection” (INSERM (INSTITUT NATIONAL DE LA SANTÉ ET DE LA RECHERCHE …, priority 2013, dated 2018):
“Also recorded” adds a separate entry of the source.

Tests used:
HBV [1] = test: Secretion of HBsAg in supernatant of HBV infected HepaRG cells; assay type: cell-based, hepatitis B virus; settings: for effect on HBsAg secretion in supernatant: treated days 4, 7 and 11 post infection, supernatant day 14
From the text: Differentiated HepaRG cells were infected with HBV (100 geq/cell for 24 hr), then treated 3 successive times (days 4, 7 and 11 post infection) with FXR modulators at indicated concentrations in μM. Cell supernatants were collected 14 days post infection for quantification of HBsAg (Architec Abbott).
(§1) The HepaRG line derived from a human cellularhepato carcinoma can differentiate and regain many phenotypic traits of hepatocytes after 4 weeks of culture under defined conditions (Hantz O. et al., 2009, J Gen Virol, 90:127-135). After differentiation, these cells are susceptible to infection at high MOI of HBV virions produced by HepG2.2.15 line. Under these conditions viral production can be observed in the second week post infection. This system allows the study of most steps of the viral replication cycle, including penetration into the cell, translocation of the viral genome into the nucleus, the repair and synthesis of the cccDNA, transcription of pregenomic and viral mRNAs as well as later stages of the replication cycle with the synthesis of viral proteins, the assembly and secretion of infectious virions and the secretion of the viral proteins HBs and HBe.
(§2) The HepaRG system thus allows the monitoring of the secretion of HBsAg and HBeAg and virion incorporated DNA into the cell culture supernatant after infection with HBV infectious virion stocks prepared from the HepG2.2.15 cell line. This system also allows the monitoring of the synthesis of pregenomic and viral mRNAs as well as cytoplasmic replication intermediates and cccDNA. The effects of molecules on cell physiology and cell differentiated functions were explored, including the quantification of hepatic markers such as albumin and apolipoprotein B. The effects of the compounds on the cellular bile acid pathway were monitored by analysis and quantification of the FXR mRNA as well as the SHP and apoA1 encoding mRNAs the expression of which is under the control of FXR

HBV [2] = test: Secretion of HBeAg in supernatant of HBV infected HepaRG cells; assay type: cell-based, hepatitis B virus; settings: for effect on HBeAg secretion in supernatant: HBV infected HepaRG, treated days 4, 7 and 11 post infection, supernatant day 14
From the text: (§3) Cell supernatants were collected 14 days post infection for quantification of HBsAg, HBeAg (Architec Abbott) or HBV DNA by quantitative PCR using rcDNA primers (n=3±SEM). FIG. 2A—Both FXR agonists, GW4064 and 6ECDCA, inhibit the secretion of HBsAg and HBeAg in the supernatant in a dose-dependent manner whereas UDCA and 052EDL133 have no effect on the antigen secretion. FIG. 2B—Both FXR agonists, GW4064 and 6ECDCA, inhibit the secretion of infectious HBV DNA positive viral particles in the supernatant in a dose-dependent manner. […] FIG. 2C—The FXR agonist PXL007 represses HBsAg, HBeAg and HBV DNA in a dose-dependent manner.
as §1, §2

HBV [3] = test: Secretion of HBV DNA in supernatant of HBV infected HepaRG cells (quantitative PCR); assay type: cell-based, hepatitis B virus; settings: for effect on secretion of HBV DNA (virions) in supernatant: supernatant day 14, quantitative PCR
From the text: as §3
Differentiated HepaRG cells were infected and treated as described in FIG. 1 legend. Cell supernatants were collected 14 days post infection. (FIG. 8A) Quantification of HBsAg and HBeAg secretion. (FIG. 8B) Quantification of secreted infectious particles by DNA extraction and quantification by qPCR.
as §1, §2

HBV [4] = test: Expression of HBV core protein (HBc) in infected HepaRG cells, immunofluorescence; assay type: cell-based, hepatitis B virus; settings: fixed day 14 post infection, anti-HBc immunofluorescence
Experimental: Differentiated HepaRG cells grown on coverslips were infected and treated as described in FIG. 1 legend (n=3±SEM). Cells were fixed on day 14 post infection and immunocytochemistry using anti-HBc antibody was carried out.

HBV [5] = test: HBV pregenomic/precore mRNA in infected HepaRG cells (qRT-PCR, Northern blot); assay type: cell-based, hepatitis B virus
From the text: Differentiated HepaRG cells were infected and treated as described in FIG. 1 legend. Cells were lysed and RNA was extracted, then either reverse transcribed into cDNA for quantitative PCR (qRT-PCR) (FIG. 4A) or used in Northern Blot experiment (FIG. 4B). The same experiment was repeated and DNA was extracted. Following plasmid-safe DNase treatment, cccDNA expression was quantified by qPCR experiment using specific HBV cccDNA primers and TaqMan probe (n=3±SEM) (FIG. 4C). cccDNA quantification was normalized to the number of βglobin gene. The expression levels of HBV pregenomic gene were quantified, as well as 3 housekeeping genes for normalization (n=3±SEM). […]
as §2, with “This system also allows the monitoring of the synthesis of pregenomic and viral mRNAs as well as cytoplasmic replication intermediates and cccDNA.” left out

FXRα = test: FXR mRNA expression in HBV infected HepaRG cells (qPCR); assay type: cell-based, human; settings: 10 days treatment
From the text: (§4) Differentiated HepaRG cells were infected and treated as described in FIG. 1 legend. Cells were lysed and RNA was extracted, then reverse transcribed into cDNA for qPCR. The expression levels of 3 genes of interest were quantified: FXRα, SHP and APOA1, as well as 3 housekeeping genes for normalization (n=3±SEM). FXR agonists, GW4064 and 6ECDCA, inhibit the expression of FXR mRNA in a dose-dependent manner. SHP and APOA1 are two genes under the regulation of FXR; SHP is induced by FXR while APOA1 is repressed. Here, SHP mRNA expression increases with GW4064 and 6ECDCA treatments, while APOA1 mRNA expression decreases.
as §2

SHP = SHP mRNA expression in HBV infected HepaRG cells (qPCR); assay type: cell-based, human; settings: 10 days treatment
From the text: as §4, §2

APOA1 = APOA1 mRNA expression in HBV infected HepaRG cells (qPCR); assay type: cell-based, human; settings: 10 days treatment
From the text: as §4, §2

FXR = target: T1, FXR (Homo sapiens, UniProt Q96RI1); test: Reporter gene under control of the HBV Enh2/core promoter region (two FXR response elements) in Huh-7 cell line; assay type: cell-based; settings: data not shown
T1 construct: host or cells: Huh-7
T1 sequence (Q96RI1 1-486): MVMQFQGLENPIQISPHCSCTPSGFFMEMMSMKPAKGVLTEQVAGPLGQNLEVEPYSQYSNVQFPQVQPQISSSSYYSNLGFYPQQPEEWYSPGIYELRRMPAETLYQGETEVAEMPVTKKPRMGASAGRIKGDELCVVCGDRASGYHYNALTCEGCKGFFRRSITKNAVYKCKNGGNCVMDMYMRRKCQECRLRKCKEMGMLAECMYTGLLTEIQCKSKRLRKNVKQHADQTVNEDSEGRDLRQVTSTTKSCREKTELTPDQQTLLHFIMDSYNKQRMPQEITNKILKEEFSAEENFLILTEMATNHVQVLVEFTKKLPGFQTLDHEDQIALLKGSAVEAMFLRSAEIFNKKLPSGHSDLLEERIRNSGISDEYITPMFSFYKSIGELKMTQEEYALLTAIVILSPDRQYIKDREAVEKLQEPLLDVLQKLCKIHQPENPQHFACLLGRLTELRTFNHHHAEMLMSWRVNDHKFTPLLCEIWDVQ
From the text: A panel of molecules not previously described and original or reference modulators of FXR activity were first tested on the expression of a reporter gene under the control of the HBV Enh2/core promoter region that contains two FXR response elements in the Huh-7 cell line as described in Ramière C, et al., 2008, J Virol; 82: 10832-10840. Molecules were then classified as FXR agonists or antagonists on the basis respectively of the expression increase or decrease of the reporter gene under the transcription control of FXR. […] Thus some molecules decreased the production of HBsAg in a dose-dependent manner. If the active molecules are classified by their antagonist, agonist or agonist “partial” by the screening test in Huh-7 cell with the reporter gene construct, it appears, against previous odds, that the inhibitory effect on the production of HBsAg grew with the tendency of the molecule to be a potent FXR agonist.

[6] = CsA during infection, then FXR agonist

Structure (SMILES) | effect on HBsAg secretion in supernatant (HBV [1]; HBV infected HepaRG) | effect on HBeAg secretion in supernatant (HBV [2]) | effect on secretion of HBV DNA (virions) in supernatant (HBV [3]) | classification as FXR agonist or antagonist by reporter gene expression (FXR) | other results
CC(C)c1onc(-c2c(Cl)cccc2Cl)c1COc1ccc(/C=C/c2cccc(C(=O)O)c2)c(Cl)c1 [GW4064] | inhibit; also recorded: strong and dose dependent inhibitory effect; also recorded: dose dependent and strong inhibitory effect | inhibit; also recorded: dose dependent and strong inhibitory effect | inhibit |  | HBsAg secretion, FXR agonist treatment of cells infected in presence of cyclosporin A (HBV [1]; [6]): further reduced; inhibition of HBsAg secretion (HBV [1]; at 10 μM, HBV infected HepaRG): around 70%; HBeAg secretion, FXR agonist treatment of cells infected in presence of cyclosporin A (HBV [2]; [6]): further reduced; expression of HBc in infected cells (HBV [4]): drastically reduce; also recorded: strongly inhibited; expression of HBV pregenomic/precore mRNA (HBV [5]): inhibit; FXR mRNA expression (FXRα): inhibit; also recorded: strongly repressed; SHP mRNA expression (SHP): increased; APOA1 mRNA expression (APOA1): decreased
O=C(O)c1cc2c(Cl)c(N3CCN(S(=O)(=O)c4c(Cl)cccc4Cl)CC3)ccc2o1 [PXL007] | represses; also recorded: strongly inhibited | represses; also recorded: strongly inhibited | represses; also recorded: strongly inhibited |  | 
O=C(O)c1cc2c(Br)c(N3CCC(NS(=O)(=O)c4c(Cl)cccc4Cl)CC3)ccc2o1 [PXL0743, 4-Bromo-5-[4-(2,6-dichloro-benzenesulfonylamino)-piperidin-1-yl]-benzofuran-2-carboxylic acid] | intermediate profile of inhibition |  |  | Partial agonists | 
O=C(O)c1cc2c(Br)c(N3CCCN(S(=O)(=O)c4ccccc4Cl)CC3)ccc2o1 [PXL0914, 4-Bromo-5-[4-(2-chloro-benzenesulfonyl)-[1,4]diazepan-1-yl]-benzofuran-2-carboxylic acid] | intermediate profile of inhibition |  |  | Partial agonists | 
Cc1c(N2CCN(C(=O)c3c(Cl)cccc3Cl)CC2)ccc2oc(C(=O)O)cc12 [PXL0924, 5-[4-(2,6-Dichloro-benzoyl)-piperazin-1-yl]-4-methyl-benzofuran-2-carboxylic acid] | intermediate profile of inhibition |  |  | Partial agonists | 
C[C@H](CCC(=O)O)[C@H]1CC[C@H]2[C@@H]3[C@@H](O)C[C@@H]4C[C@H](O)CC[C@]4(C)[C@H]3CC[C@]12C [UDCA, ursodesoxycholic acid] | no effect | no effect | no or limited effect; also recorded: did not modify |  | effect on HBsAg secretion in supernatant (HBV [1]; HBV infected HepaRG, listed as ursodeoxycholate): did not inhibit; effect on HBeAg secretion in supernatant (HBV [2]; listed as ursodeoxycholate): did not inhibit; expression of HBc in infected cells (HBV [4]): do not appear to modify; also recorded: did not significantly modify
Nc1ccn([C@@H]2CS[C@H](CO)O2)c(=O)n1 [lamivudine] |  |  |  |  | reduction of viral DNA secreted in supernatant (HBV [3]; at 10 μM): 97%
